# Measurements published in ChEMBL document CHEMBL3507680, “University of Dundee, Gates Library screen for HepG2 cell viability”.
# Experiment: Human HepG2 cell viability assay in 384 well format
# Assay type: toxicity, cell-based
# Parameters: dose 125 nL, time 70.5 hour; concentration not given beside the values
# Conditions: HepG2 cells, read-out: Inhibition
row,SMILES,cytotoxicity at 70.5 h [%]
1,Cc1c[nH]nc1C1CN(Cc2cnn(-c3ccccc3C(=O)O)c2)C1,-6.87
2,O=C(NCC(=O)N1CCN(c2ccccc2)CC1)c1sccc1C1CC1,-2.46
3,Cc1ccsc1CN(CCN(C)C)Cc1ccccn1,-4.97
4,COc1cccc(C2CCCN2Cc2nc3c(cnn3C)c(=O)[nH]2)c1 (stereo not drawn),-1.55
5,CN(CC1CCC1)C(=O)c1ccc(-c2nc(C3CC3)n[nH]2)cc1,-8.67
6,COC(=O)c1ccc(Cn2nc(C)cc2C)c(OC)c1,2.29
7,Cc1nn(C)c(Cl)c1C1CCCN1C(=O)c1cnc[nH]1 (stereo not drawn),-12.8
8,O=C(c1coc(-c2ccccc2)n1)N1CCCC1,3.66
9,Cc1ccc(CCNC(=O)N2CCC(Cc3cnn(C)c3)C2)cn1 (stereo not drawn),-1.42
10,CC(=O)NCCC(=O)NCc1ccc(Br)cc1Cl,-0.899
11,CN(Cc1nc2ccccc2c(=O)[nH]1)C1CC(=O)N(C2CC2)C1=O (stereo not drawn),-12.1
12,Cn1nc(CN2CCCCC2)c2c1CN(C(=O)c1cccc(C#N)c1)C2,15.7
13,c1cc(CN2CCCN(c3ccc4cc[nH]c4n3)CC2)ccn1,-1.4
14,Cc1ccc(CCC(C)NC2CCN(C(N)=O)CC2)cc1 (stereo not drawn),-1.06
15,COCCC1COC2(CCN(C(=O)c3ccsc3)CC2)C1 (stereo not drawn),-12.7
16,Cc1ccc(OCC(=O)NCc2ccccc2F)nc1,-2.31
17,CCn1cc(CN2C[C@H]3CC[C@@H]2CN(C(=O)c2cnccn2)C3)cn1,-5.14
18,CC(C)C1CCC(N2CCN(CCS(C)(=O)=O)CC2)CC1 (stereo not drawn),-4.3
19,COc1ccccc1NCC(=O)NCc1ccc(-c2ccn[nH]2)cc1,-4.94
20,Cc1ncc(CNCCO)c2cc(C(=O)c3ccc(Br)cc3)oc12,-18
21,CC(=O)N1CCCN(S(=O)(=O)c2cc3ccccc3o2)CC1,0.284
22,O=C(Cc1cccs1)N1CCOCC1CO (stereo not drawn),-3.61
23,N#CC1(C(=O)N2CCN(c3nccs3)CC2)CCCCC1,-10.1

row,SMILES,cytotoxicity at 70.5 h [%]
1,c1cn2c(n1)CN(CC1CC1)CC(CN1CCOCC1)C2 (stereo not drawn),-7.21
2,COC(=O)NCC(=O)N1CCC(Oc2cccc(C)c2)CC1,-5.33
3,N#Cc1ccc(C(=O)NS(=O)(=O)c2ccc(C#N)c(Cl)c2)cc1,-8.83
4,O=C(c1cc(Cl)c2c(c1)OCO2)N1CCN(c2cnccn2)CC1,0.695
5,Cc1nccc(N2CCCC(C)(c3[nH]ncc3C(N)=O)C2)n1 (stereo not drawn),-4.04
6,O=C(Cc1cnccn1)N1C[C@H]2CC[C@@H]1CN(Cc1cscn1)C2,-12.8
7,CCN(Cc1noc(CC(C)C)n1)Cc1ccccc1OCC(=O)O,-2.84
8,Cn1nc(C2CC2)c2c1NC(=O)CC2c1cc(CN2CCCC2)cs1 (stereo not drawn),-8.83
9,OC1COCCN(Cc2cccc(N3CCOCC3)c2)C1 (stereo not drawn),-5.01
10,C=C(C)COc1ccc(C(=O)N(C)C(C)c2ccon2)cc1 (stereo not drawn),-9.63
11,O=C(CCc1ccccc1)Nc1ncccc1OC(F)F,-0.101
12,CC(=O)N(Cc1ncc(C(C)C)o1)C1CCN(Cc2cc(C)no2)C1 (stereo not drawn),-4.1
13,COc1ccc(CN2CCCCCC2c2cccs2)c(O)c1 (stereo not drawn),-7.17
14,CCn1cc2c(n1)CN(S(=O)(=O)c1ccc(C)cc1)CC2COC (stereo not drawn),-1.69
15,CSCc1noc(C2CCC(=O)N(CCCN3CCCC3=O)C2)n1 (stereo not drawn),-4.64
16,COc1cccc(CN2CCN(c3ccc4nncn4n3)C(C)C2)c1 (stereo not drawn),9.6
17,O=C(NCCc1ccncc1)c1cccc(S(=O)(=O)N[C@@H]2CCNC2)c1,19
18,O=C(Cc1ccccc1Cl)Nc1cc(N2CCCC2)ncn1,-0.171
19,NC(=O)CN1CCC(C(=O)NCc2nc(-c3ccc(F)cc3)cs2)CC1,-0.391
20,COc1cccc(CNc2cnn(C)c(=O)c2Cl)c1,3.02
21,CC(=O)NCc1nccnc1C1CCN(C(=O)c2cc[nH]n2)CC1,-6.68
22,Cc1nc(NCc2noc(C3CCCO3)n2)c2sccc2n1 (stereo not drawn),31.3
23,CN(C)c1cnn(CC(=O)N2CCCCCC2)c(=O)c1,-0.929

row,SMILES,cytotoxicity at 70.5 h [%]
1,CN(C)C(=O)c1cccc(CCNS(C)(=O)=O)c1,-2.26
2,NC(=O)c1cnc2n1CCN(C(=O)c1ccc(Cn3cccc3)cc1)C2,5.38
3,O=C1C[C@@H]2[C@H](CCN2Cc2ccco2)N1c1ccsc1,9.07
4,O=C(NCc1ccco1)[C@@H]1CC[C@@H]2[C@@H](CCN2CC2CC2)O1,-6.24
5,COc1cccc(OC2CN(C(=O)c3c(C)noc3C)C2)c1,-9.88
6,Cc1ccc(C(=O)CC(SC2CCCCC2)C(=O)O)cc1 (stereo not drawn),-2.59
7,CC(C)N1CC2(CCCN(c3ccnc4ccccc34)C2)CCC1=O (stereo not drawn),-0.494
8,c1cc(CN2CCC(c3ccnc4nccn34)C2)ccn1 (stereo not drawn),-1.62
9,O=C(c1ccccc1)N1CCCC2(CCN2Cc2cccc(F)c2)C1 (stereo not drawn),-9.02
10,CC(C)Cc1nc(CN2CCC(N3CCN(C)C3=O)CC2)no1,-1.18
11,CCCS(=O)(=O)N1CCO[C@H]2[C@@H](Oc3cccnc3)CC[C@@H]21,-1.96
12,O=C1CNc2ncnc(NCc3cccs3)c2N1,-5.96
13,CNS(=O)(=O)Cc1ccc(CNc2ccc(C#N)cn2)cc1,-6.5
14,CCCN(C1CCc2ccccc2C1)S(C)(=O)=O (stereo not drawn),-2.87
15,O=S1(=O)CCN2C(=N1)Oc1ccc(S(=O)(=O)N3CCCC3)cc12,-5.8
16,Cc1nc(C)n(C2CCCN(C(=O)CCCc3ccccn3)C2)n1 (stereo not drawn),-7.71
17,COc1cc(CNc2nc(C3CC3)no2)cc(OC)c1OC,6.45
18,c1cnc(N2CCCC(NCc3cccc4c3OCCO4)C2)nc1 (stereo not drawn),3.71
19,Cc1cc(CNC(=O)NCc2cccs2)no1,-5.03
20,FC(F)(F)c1n[nH]c2c1CN(CCc1ccccn1)CC2,13.8
21,O=C(NCc1cccnc1)[C@@H]1C[C@H]2[C@H](CCN2c2ncc(F)cn2)O1,-4.83
22,Cc1nc(C)n(CC2CCCCN2Cc2nnc(-c3ccco3)o2)n1 (stereo not drawn),-6.54
23,CCCc1ccc(CN2CCN(c3ncccn3)[C@@H]3CS(=O)(=O)C[C@@H]32)o1,-8.8

row,SMILES,cytotoxicity at 70.5 h [%]
1,C1CC(N2C[C@@H]3COC[C@]3(COCC3CCOCC3)C2)C1,-1.94
2,CC[C@@H](C)[C@@H](N)C(=O)Nc1cccc(-c2cnc(NCCO)nc2)c1,-7.48
3,CN(C)C1CCN(C(=O)c2cc(-c3ccn(C)n3)n3ccccc23)CC1,-6.13
4,CCCOC(=O)N1CCC(c2nnc(Cn3cccn3)n2C2CC2)CC1,4.42
5,CCOCC(=O)Nc1ncn(Cc2cccc(Br)c2)n1,17.2
6,Cc1cccc(CN2C[C@@H](NC(=O)C3CCC3)[C@H]3COC[C@H]32)n1,-5.38
7,Cc1ccc(C)c(OCCC(=O)N2CCCN(CC(N)=O)CC2)c1,-7.33
8,Cc1ccccc1C(C(=O)N(Cc1cnn(C)c1)CC(C)C)N(C)C (stereo not drawn),-9.52
9,CCN1CCN(C[C@@H]2CN(c3ncccc3C(F)(F)F)C[C@@H]2CO)CC1,-5.49
10,FC(F)(F)COCCN1CCOC(Cn2cccn2)C1 (stereo not drawn),-0.0607
11,O=C(N1CCC2(CC1)[C@H](O)C[C@@H]2O)C1(c2ccccc2F)CC1,1.59
12,CC(C)(C)C(C#N)NC(=O)c1ccc(Oc2cccnc2)cc1 (stereo not drawn),-8.31
13,O=C(c1ccoc1)N1CC[C@H]2C[C@@H](c3nnc(C4CC4)o3)O[C@@H]2C1,-12
14,CCc1nc(CN(C(C)=O)C2CCN(CCc3cccs3)C2)no1 (stereo not drawn),13
15,CN1C(=O)CC(C(=O)O)C12CCN(Cc1ccc(Cl)c(Cl)c1)CC2 (stereo not drawn),-7.82
16,CC(C)c1nccc(CN2CCCC(O)(CN(C)C)C2)n1 (stereo not drawn),15
17,CC(C)(C)C1SCC(=O)Nc2c1c(O)nn2C1CCCCC1 (stereo not drawn),8.92
18,Cc1cc(C)n(CC2CCCCN2CCCS(N)(=O)=O)n1 (stereo not drawn),14
19,CCOc1cccc(CSC(C)c2nc(C)no2)n1 (stereo not drawn),-3.8
20,Cc1ccc(NC2CCN(C(=O)c3cscn3)CC2)nn1,0.539
21,Cc1ccc(-c2nnc(CCC(=O)NCc3cn(C)nc3C)o2)s1,-9.67
22,CNS(=O)(=O)CC(=O)NCc1cc2c(s1)CCC(C)(C)C2,-1.59
23,c1ccc(CCN2CCCC2c2ccnc(Nc3ncccn3)n2)cc1 (stereo not drawn),-5.57

row,SMILES,cytotoxicity at 70.5 h [%]
1,c1nc(CNC2CCOCC2)c2n1CCCN(CC1CC1)C2,-3.82
2,Cc1cc(C)n2c(CCCNS(=O)(=O)c3ccccc3)nnc2n1,-7.9
3,Cc1csc(C(=O)N2CCCC(c3[nH]ncc3S(C)(=O)=O)C2)c1 (stereo not drawn),-0.679
4,COc1ccc(CNCCc2cccc(C(N)=O)c2)cc1C,11.7
5,CC(=O)N[C@@H]1CN(Cc2oc3ccccc3c2C)C[C@H]1c1ccc(C)o1,-7.22
6,O=C(c1ccncc1)N1CCCn2c(CN3CCCC3)nnc2C1,-9.38
7,O=C(c1ccccc1F)N1CCN(CCCn2cncn2)CC1,-5.46
8,CN1CCCc2cc(-c3cncn3CC(=O)NC(C)(C)C)ccc21,-16.5
9,CC(C)C(=O)N1CCC(NC2CCSCC2)C1 (stereo not drawn),-4.83
10,CC1c2ncc(Cn3cccn3)n2CCN1Cc1ccccn1 (stereo not drawn),-1.75
11,O=C(NC[C@]12COC[C@H]1CN(C1CCOCC1)C2)c1ccco1,-0.469
12,CC(C)OCCC(=O)Nc1ncn(CC(=O)N2CCCCCC2)n1,-1.46
13,O=C(Cc1ccc(Cl)s1)Nc1ccc2c(c1)C(=O)NC2=O,-1.77
14,CCN(Cc1cccc2c1OCO2)C(=O)NCCOC,3.33
15,CCc1nnsc1C(=O)N1CCN(CC(O)C(C)(C)C)CC1 (stereo not drawn),-10.2
16,COc1cc(CN2CCCC2c2cccc(F)c2)cc(OC)c1OC (stereo not drawn),-11.4
17,Cc1cnc(N2CC[C@@H]3CN(Cc4ccncc4)CCO[C@@H]3C2)nc1,8.21
18,COc1ccc(CNC[C@H]2COCc3nc4cc(F)ccc4n32)cc1,-14.9
19,Cc1noc(C)c1CN1CCCC1c1nnc2ccccn12 (stereo not drawn),-23.7
20,Cc1cccc(CS(=O)(=O)NCc2nn(C)c3c2COCC3)c1,-7.96
21,COCc1nc(C(=O)N2CCCC2c2cccc(C)c2)cs1 (stereo not drawn),-8.14
